Measurements published in ChEMBL document CHEMBL3769397, “A new GLP-1 analogue with prolonged glucose-lowering activity in vivo via backbone-based modification at the N-terminus” (Bioorg Med Chem, 2016).

Key:
[1] = target: T1, DPP4 (dipeptidyl peptidase 4) (Homo sapiens, UniProt P27487); assay: Drug degradation assessed as recombinant human DPP4-mediated cleavage by measuring compound remaining after 1 hr by RP-HPLC analysis; type: ADME; conditions: read-out: Stability
[2] = target: Glucagon-like peptide 1 receptor (Homo sapiens, UniProt P43220); assay: Activation of human GLP1R expressed in HEK293 cells preincubated for 30 mins followed by addition of cAMP-d2 conjugate/cryptate conjugate incubated for 60 mins by fluorescence analysis; type: functional, cell-based
Chain of Glucagon-like peptide 1 receptor (P43220 whole entry): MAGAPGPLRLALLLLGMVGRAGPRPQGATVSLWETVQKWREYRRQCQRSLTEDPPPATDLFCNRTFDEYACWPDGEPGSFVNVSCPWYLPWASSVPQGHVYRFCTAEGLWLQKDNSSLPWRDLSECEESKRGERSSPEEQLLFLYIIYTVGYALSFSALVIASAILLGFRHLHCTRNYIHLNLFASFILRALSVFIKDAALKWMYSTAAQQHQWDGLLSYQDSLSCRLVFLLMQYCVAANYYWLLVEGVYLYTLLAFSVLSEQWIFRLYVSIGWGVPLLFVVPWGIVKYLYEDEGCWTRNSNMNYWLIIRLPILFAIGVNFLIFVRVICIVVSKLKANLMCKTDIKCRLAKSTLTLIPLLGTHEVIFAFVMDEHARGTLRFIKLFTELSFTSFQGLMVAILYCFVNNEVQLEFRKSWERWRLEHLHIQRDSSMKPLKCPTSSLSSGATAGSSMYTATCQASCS

[3] = target: T1, DPP4 (dipeptidyl peptidase 4); assay: Drug degradation assessed as recombinant human DPP4-mediated cleavage by measuring compound remaining after 2 hrs by RP-HPLC analysis; type: ADME; conditions: read-out: Stability
[4] = target: T1, DPP4 (dipeptidyl peptidase 4); assay: Half life of compound assessed as recombinant human DPP4-mediated cleavage by RP-HPLC analysis; type: ADME
[5] = target: T1, DPP4 (dipeptidyl peptidase 4); assay: Drug degradation assessed as recombinant human DPP4-mediated cleavage by measuring compound remaining after 12 hrs by RP-HPLC analysis; type: ADME; conditions: read-out: Stability
[6] = Retention time of compound over 30 mins by HPLC analysis; type: physicochemical; conditions: 0.5 h
[7] = target: T1, DPP4 (dipeptidyl peptidase 4); assay: Drug degradation assessed as recombinant human DPP4-mediated cleavage by measuring compound remaining after 8 hrs by RP-HPLC analysis; type: ADME; conditions: read-out: Stability
[8] = target: T1, DPP4 (dipeptidyl peptidase 4); assay: Drug degradation assessed as recombinant human DPP4-mediated cleavage by measuring compound remaining after 4 hrs by RP-HPLC analysis; type: ADME; conditions: read-out: Stability
[9] = target: T1, DPP4 (dipeptidyl peptidase 4); assay: Drug degradation assessed as recombinant human DPP4-mediated cleavage by measuring compound remaining after 96 hrs by RP-HPLC analysis; type: ADME; conditions: read-out: Stability
[10] = target: T1, DPP4 (dipeptidyl peptidase 4); assay: Drug degradation assessed as recombinant human DPP4-mediated cleavage by measuring compound remaining after 24 hrs by RP-HPLC analysis; type: ADME; conditions: read-out: Stability
[11] = target: T1, DPP4 (dipeptidyl peptidase 4); assay: Drug degradation assessed as recombinant human DPP4-mediated cleavage by measuring compound remaining after 72 hrs by RP-HPLC analysis; type: ADME; conditions: read-out: Stability
[12] = target: T1, DPP4 (dipeptidyl peptidase 4); assay: Drug degradation assessed as recombinant human DPP4-mediated cleavage by measuring compound remaining after 48 hrs by RP-HPLC analysis; type: ADME; conditions: read-out: Stability
Mus musculus [13] = assay: Reduction in blood glucose in Kunming mouse assessed as blood glucose level at 25 nmol/kg, ip at administered 0 mins followed by first glucose challenge at 40 mins followed by second glucose challenge at 310 mins and measured at 310 mins by glucose tolerance test (reference value: 4.9 to 6.3 mmol/L); type: functional
Mus musculus [14] = assay: Reduction in blood glucose in Kunming mouse assessed as blood glucose level at 25 nmol/kg, ip at administered 0 mins followed by first glucose challenge at 40 mins followed by second glucose challenge at 310 mins and measured at 385 mins by glucose tolerance test (reference value: 4.9 to 6.3 mmol/L); type: functional
Mus musculus [15] = assay: Reduction in blood glucose in Kunming mouse assessed as blood glucose level at 25 nmol/kg, ip at administered 0 mins followed by first glucose challenge at 40 mins followed by second glucose challenge at 310 mins and measured at 160 mins by glucose tolerance test (reference value: 4.9 to 6.3 mmol/L); type: functional
Mus musculus [16] = assay: Reduction in blood glucose in Kunming mouse assessed as blood glucose level at 25 nmol/kg, ip at administered 0 mins followed by first glucose challenge at 40 mins followed by second glucose challenge at 310 mins and measured at 350 mins by glucose tolerance test (reference value: 4.9 to 6.3 mmol/L); type: functional
Mus musculus [17] = assay: Reduction in blood glucose in Kunming mouse assessed as blood glucose level at 25 nmol/kg, ip at administered 0 mins followed by first glucose challenge at 40 mins followed by second glucose challenge at 310 mins and measured at 40 mins by glucose tolerance test (reference value: 4.9 to 6.3 mmol/L); type: functional
Mus musculus [18] = assay: Reduction in blood glucose in Kunming mouse assessed as blood glucose level at 25 nmol/kg, ip at administered 0 mins followed by first glucose challenge at 40 mins followed by second glucose challenge at 310 mins and measured at 115 mins by glucose tolerance test (reference value: 4.9 to 6.3 mmol/L); type: functional
Mus musculus [19] = assay: Reduction in blood glucose in Kunming mouse assessed as blood glucose level at 25 nmol/kg, ip at administered 0 mins followed by first glucose challenge at 40 mins followed by second glucose challenge at 310 mins and measured at 430 mins by glucose tolerance test (reference value: 4.9 to 6.3 mmol/L); type: functional
Mus musculus [20] = assay: Reduction in blood glucose in Kunming mouse assessed as blood glucose level at 25 nmol/kg, ip at administered 0 mins followed by first glucose challenge at 40 mins followed by second glucose challenge at 310 mins and measured at 80 mins by glucose tolerance test (reference value: 4.9 to 6.3 mmol/L); type: functional
Mus musculus [21] = assay: Reduction in blood glucose in Kunming mouse assessed as blood glucose level at 25 nmol/kg, ip at administered 0 mins followed by first glucose challenge at 40 mins followed by second glucose challenge at 310 mins and measured at 325 mins by glucose tolerance test (reference value: 4.9 to 6.3 mmol/L); type: functional
Mus musculus [22] = assay: Reduction in blood glucose in Kunming mouse assessed as blood glucose level at 25 nmol/kg, ip at administered 0 mins followed by first glucose challenge at 40 mins followed by second glucose challenge at 310 mins and measured at 55 mins by glucose tolerance test (reference value: 4.9 to 6.3 mmol/L); type: functional

T1 sequence (P27487 whole entry): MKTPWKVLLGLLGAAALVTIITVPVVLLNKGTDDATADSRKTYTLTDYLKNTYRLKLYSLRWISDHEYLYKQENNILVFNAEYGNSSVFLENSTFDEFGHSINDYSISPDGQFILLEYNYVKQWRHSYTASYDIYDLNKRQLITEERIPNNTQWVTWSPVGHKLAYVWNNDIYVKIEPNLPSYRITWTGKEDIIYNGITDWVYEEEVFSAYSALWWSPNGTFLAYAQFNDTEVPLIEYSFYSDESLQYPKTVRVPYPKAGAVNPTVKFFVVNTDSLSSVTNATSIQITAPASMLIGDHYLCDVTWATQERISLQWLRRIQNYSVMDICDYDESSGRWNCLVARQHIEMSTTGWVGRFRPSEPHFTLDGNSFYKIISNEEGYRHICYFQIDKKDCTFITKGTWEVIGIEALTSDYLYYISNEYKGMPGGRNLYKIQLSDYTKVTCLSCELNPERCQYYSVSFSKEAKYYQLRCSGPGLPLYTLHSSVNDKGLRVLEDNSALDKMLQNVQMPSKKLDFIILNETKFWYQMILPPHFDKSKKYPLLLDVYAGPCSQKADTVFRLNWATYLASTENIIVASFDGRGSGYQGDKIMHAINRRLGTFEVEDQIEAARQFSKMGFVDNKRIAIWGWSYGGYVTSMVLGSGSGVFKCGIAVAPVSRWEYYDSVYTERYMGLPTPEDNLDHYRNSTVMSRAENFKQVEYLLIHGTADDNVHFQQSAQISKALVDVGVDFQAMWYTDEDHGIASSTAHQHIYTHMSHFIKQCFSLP

Row | remaining at 1 h [1] [%] | remaining at 2 h [3] [%] | half-life [4] [h] | remaining at 12 h [5] [%] | Retention_time [6] [min] | remaining at 8 h [7] [%] | remaining at 4 h [8] [%] | remaining at 96 h [9] [%] | remaining at 24 h [10] [%] | remaining at 72 h [11] [%] | remaining at 48 h [12] [%] | SMILES | Activity (Mus musculus [13]) [mmol/L] | Activity (Mus musculus [14]) [mmol/L] | Activity (Mus musculus [15]) [mmol/L] | Activity (Mus musculus [16]) [mmol/L] | Activity (Mus musculus [17]) [mmol/L] | Activity (Mus musculus [18]) [mmol/L] | Activity (Mus musculus [19]) [mmol/L] | Activity (Mus musculus [20]) [mmol/L] | Activity (Mus musculus [21]) [mmol/L] | other results
1 | 74.8 | 57.5 | 2.39 | 7.5 | 14.566 | 14.9 | 34.8 |  |  |  |  | CC[C@H](C)[C@H](NC(=O)[C@H](Cc1ccccc1)NC(=O)[C@H](CCC(=O)O)NC(=O)[C@H](CCCCN)NC(=O)[C@H](C)NC(=O)[C@H](C)NC(=O)[C@H](CCC(N)=O)NC(=O)CNC(=O)[C@H](CCC(=O)O)NC(=O)[C@H](CC(C)C)NC(=O)[C@H](Cc1ccc(O)cc1)NC(=O)[C@H](CO)NC(=O)[C@H](CO)NC(=O)[C@@H](NC(=O)[C@H](CC(=O)O)NC(=O)[C@H](CO)NC(=O)[C@@H](NC(=O)[C@H](Cc1ccccc1)NC(=O)[C@@H](NC(=O)CCNC(=O)[C@H](CCC(=O)O)NC(=O)[C@H](C)NC(=O)[C@@H](N)Cc1cnc[nH]1)[C@@H](C)O)[C@@H](C)O)C(C)C)C(=O)N[C@@H](C)C(=O)N[C@@H](Cc1c[nH]c2ccccc12)C(=O)N[C@@H](CC(C)C)C(=O)N[C@H](C(=O)N[C@@H](CCCCN)C(=O)NCC(=O)N[C@@H](CCCNC(=N)N)C(N)=O)C(C)C |  |  |  |  |  |  |  |  |  | EC50 [2]: 0.0636 nM
2 |  |  | > 96 | 100 | 13.842 |  |  | 100 | 100 | 100 | 100 | CC[C@H](C)[C@H](NC(=O)[C@H](Cc1ccccc1)NC(=O)[C@H](CCC(=O)O)NC(=O)[C@H](CCCCN)NC(=O)[C@H](C)NC(=O)[C@H](C)NC(=O)[C@H](CCC(N)=O)NC(=O)CNC(=O)[C@H](CCC(=O)O)NC(=O)[C@H](CC(C)C)NC(=O)[C@H](Cc1ccc(O)cc1)NC(=O)[C@H](CO)NC(=O)[C@H](CO)NC(=O)[C@@H](NC(=O)[C@H](CC(=O)O)NC(=O)[C@H](CO)NC(=O)[C@@H](NC(=O)[C@H](Cc1ccccc1)NC(=O)[C@@H](NC(=O)CNC(=O)[C@H](CCC(=O)O)NC(=O)C1(NC(=O)[C@@H](N)Cc2cnc[nH]2)CC1)[C@@H](C)O)[C@@H](C)O)C(C)C)C(=O)N[C@@H](C)C(=O)N[C@@H](Cc1c[nH]c2ccccc12)C(=O)N[C@@H](CC(C)C)C(=O)N[C@H](C(=O)N[C@@H](CCCCN)C(=O)NCC(=O)N[C@@H](CCCNC(=N)N)C(N)=O)C(C)C [listing 1 of 2 here] |  |  |  |  |  |  |  |  |  | EC50 ([2]; hek293): 0.0284 nM

Continued, molecule first:

Row | SMILES | remaining at 1 h [1] [%] | remaining at 2 h [3] [%] | half-life [4] [h] | remaining at 12 h [5] [%] | Retention_time [6] [min] | remaining at 8 h [7] [%] | remaining at 4 h [8] [%] | remaining at 96 h [9] [%] | remaining at 24 h [10] [%] | remaining at 72 h [11] [%] | remaining at 48 h [12] [%] | Activity (Mus musculus [13]) [mmol/L] | Activity (Mus musculus [14]) [mmol/L] | Activity (Mus musculus [15]) [mmol/L] | Activity (Mus musculus [16]) [mmol/L] | Activity (Mus musculus [17]) [mmol/L] | Activity (Mus musculus [18]) [mmol/L] | Activity (Mus musculus [19]) [mmol/L] | Activity (Mus musculus [20]) [mmol/L] | Activity (Mus musculus [21]) [mmol/L] | other results
3 | CC[C@H](C)[C@H](NC(=O)[C@H](Cc1ccccc1)NC(=O)[C@H](CCC(=O)O)NC(=O)[C@H](CCCCN)NC(=O)[C@H](C)NC(=O)[C@H](C)NC(=O)[C@H](CCC(N)=O)NC(=O)CNC(=O)[C@H](CCC(=O)O)NC(=O)[C@H](CC(C)C)NC(=O)[C@H](Cc1ccc(O)cc1)NC(=O)[C@H](CO)NC(=O)[C@H](CO)NC(=O)[C@@H](NC(=O)[C@H](CC(=O)O)NC(=O)[C@H](CO)NC(=O)[C@@H](NC(=O)[C@H](Cc1ccccc1)NC(=O)[C@@H](NC(=O)CNC(=O)[C@H](CCC(=O)O)NC(=O)C[C@H](C)NC(=O)[C@@H](N)Cc1cnc[nH]1)[C@@H](C)O)[C@@H](C)O)C(C)C)C(=O)N[C@@H](C)C(=O)N[C@@H](Cc1c[nH]c2ccccc12)C(=O)N[C@@H](CC(C)C)C(=O)N[C@H](C(=O)N[C@@H](CCCCN)C(=O)NCC(=O)N[C@@H](CCCNC(=N)N)C(=O)O)C(C)C | 100 | 100 | > 96 | 100 | 14.536 | 100 | 100 | 100 | 100 | 100 | 100 |  |  |  |  |  |  |  |  |  | 
4 | CC[C@H](C)[C@H](NC(=O)[C@H](Cc1ccccc1)NC(=O)[C@H](CCC(=O)O)NC(=O)[C@H](CCCCN)NC(=O)[C@H](C)NC(=O)[C@H](C)NC(=O)[C@H](CCC(N)=O)NC(=O)CNC(=O)[C@H](CCC(=O)O)NC(=O)[C@H](CC(C)C)NC(=O)[C@H](Cc1ccc(O)cc1)NC(=O)[C@H](CO)NC(=O)[C@H](CO)NC(=O)[C@@H](NC(=O)[C@H](CC(=O)O)NC(=O)[C@H](CO)NC(=O)[C@@H](NC(=O)[C@H](Cc1ccccc1)NC(=O)[C@@H](NC(=O)CNC(=O)[C@H](CCC(=O)O)NC(=O)[C@H](C)CNC(=O)[C@@H](N)Cc1cnc[nH]1)[C@@H](C)O)[C@@H](C)O)C(C)C)C(=O)N[C@@H](C)C(=O)N[C@@H](Cc1c[nH]c2ccccc12)C(=O)N[C@@H](CC(C)C)C(=O)N[C@H](C(=O)N[C@@H](CCCCN)C(=O)NCC(=O)N[C@@H](CCCNC(=N)N)C(N)=O)C(C)C |  |  |  |  |  |  |  |  |  |  |  | 5.4 | 8.1 | 6.9 | 16.5 | 6.1 | 10.8 | 7.8 | 16.6 | 23.4 | Activity (Mus musculus [22]): 13.5 mmol/L
5 | CC[C@H](C)[C@H](NC(=O)[C@H](Cc1ccccc1)NC(=O)[C@H](CCC(=O)O)NC(=O)[C@H](CCCCN)NC(=O)[C@H](C)NC(=O)[C@H](C)NC(=O)[C@H](CCC(N)=O)NC(=O)CNC(=O)[C@H](CCC(=O)O)NC(=O)[C@H](CC(C)C)NC(=O)[C@H](Cc1ccc(O)cc1)NC(=O)[C@H](CO)NC(=O)[C@H](CO)NC(=O)[C@@H](NC(=O)[C@H](CC(=O)O)NC(=O)[C@H](CO)NC(=O)[C@@H](NC(=O)[C@H](Cc1ccccc1)NC(=O)[C@@H](NC(=O)CNC(=O)[C@H](CCC(=O)O)NC(=O)C1(NC(=O)[C@@H](N)Cc2cnc[nH]2)CC1)[C@@H](C)O)[C@@H](C)O)C(C)C)C(=O)N[C@@H](C)C(=O)N[C@@H](Cc1c[nH]c2ccccc12)C(=O)N[C@@H](CC(C)C)C(=O)N[C@H](C(=O)N[C@@H](CCCCN)C(=O)NCC(=O)N[C@@H](CCCNC(=N)N)C(N)=O)C(C)C [listing 2 of 2 here] |  |  |  |  |  |  |  |  |  |  |  | 5.9 | 10.8 | 6.5 | 19.8 | 7.5 | 13.8 | 7.1 | 17.2 | 21.2 | Activity (Mus musculus [22]): 12.9 mmol/L
